Test results reported in US20090281054A1, “COMPOSITIONS AND METHODS COMPRISING CAPURAMYCIN ANALOGUES” (priority 2008, published 2009).
≈ marks a conversion by molar mass, not a printed value. Like-named read-outs stand apart in the source and are kept apart here.

Tests used:
[1] = test system: M. abscessus (MAB; ATCC 700869); assay: MIC by microdilution method in 7H9 broth; type: cell-based; settings: Mycobacteroides abscessus, ATCC700869; MAB 700869; read-out: MIC
[2] = test system: M. kansaii (MKN; ATCC12478 & 35775); assay: MIC by microdilution method in 7H9 broth; type: cell-based, M. kansasii; settings: Mycobacterium kansasii, read-out: MIC
[3] = test system: M. smegmatis (MSMG; MC2155); assay: MIC by microdilution method in 7H9 broth; type: cell-based; settings: Mycolicibacterium smegmatis, MC2155|MC^2155, 72 hr, read-out: MIC
translocase I = translocase I (Escherichia coli, UniProt P0A6W3); assay: IC50 against translocase I; type: biochemical
M. avium complex (MAC) = assay: MIC by microdilution method in 7H9 broth; type: cell-based; settings: for MIC / MIC90: Mycobacterium avium; for MIC90: value in square brackets, read-out: MIC90
MAC = assay: Synergy by checkerboard titration (microdilution); type: cell-based, M. avium complex; settings: for MIC Combination: combination SQ641 + AMK; for MIC: Mycobacterium avium, drug alone
[4] = ATCC 12478 / ATCC 35775, MKN ATCC35775
[5] = 336 h, MAC isolates, 2 wk, read-out: MIC (range)
[6] = MAC strain NIH C1-1, read-out: MIC
[7] = MAC strain NIH C1-2, read-out: MIC
[8] = MAC strain NIH C1-3, read-out: MIC
[9] = MAC strain NIH C1-4, read-out: MIC

Chain of translocase I (P0A6W3 whole entry): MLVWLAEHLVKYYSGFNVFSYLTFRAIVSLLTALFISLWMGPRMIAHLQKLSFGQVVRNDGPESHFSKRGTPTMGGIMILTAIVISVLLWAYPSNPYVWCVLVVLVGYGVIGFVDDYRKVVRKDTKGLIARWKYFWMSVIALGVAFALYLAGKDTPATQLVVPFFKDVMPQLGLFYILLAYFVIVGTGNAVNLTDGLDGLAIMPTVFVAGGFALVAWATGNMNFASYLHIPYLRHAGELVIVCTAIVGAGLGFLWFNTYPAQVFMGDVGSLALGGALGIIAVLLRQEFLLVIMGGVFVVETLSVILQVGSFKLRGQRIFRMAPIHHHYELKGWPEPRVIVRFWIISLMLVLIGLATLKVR

## COc1c(N2C[C@@H]3CCCN[C@@H]3C2)c(F)cc2c(=O)c(C(=O)O)cn(C3CC3)c12 [MOX, moxifloxacin, reference compound]
[1]
  MIC: > 32 µg/mL
[2]; [4]
  MIC: 0.031 µg/mL (≈ 0.0772 µM)
[2]; MKN ATCC12478
  MIC: 0.125 µg/mL (≈ 0.311 µM)
[3]
  MIC: 0.125 µg/mL (≈ 0.311 µM)

## CO[C@H]1[C@@H](O)[C@H](n2ccc(=O)[nH]c2=O)O[C@@H]1[C@@H](O[C@H]1OC(C(=O)Nc2ccc(C(F)(F)F)cc2)=C[C@H](O)[C@@H]1O)C(N)=O [RKS2033]
Translocase I
  IC50 against translocase I: 0.03 µg/mL (≈ 0.0498 µM)
M. avium complex (MAC); [5]
  MIC: 1 to 8 µg/mL (≈ 1.66 to 13.3 µM)
M. avium complex (MAC); MAC strain 100, read-out: MIC
  MIC: 2 µg/mL (≈ 3.32 µM)
M. avium complex (MAC); MAC strain 101, read-out: MIC
  MIC: 2 µg/mL (≈ 3.32 µM)
M. avium complex (MAC); MAC strain 104, read-out: MIC
  MIC: 1 µg/mL (≈ 1.66 µM)
M. avium complex (MAC); MAC strain 109, read-out: MIC
  MIC: 1 µg/mL (≈ 1.66 µM)
M. avium complex (MAC); MAC strain A5, read-out: MIC
  MIC: 2 µg/mL (≈ 3.32 µM)
M. avium complex (MAC); MAC strain JSH1, read-out: MIC
  MIC: 2 µg/mL (≈ 3.32 µM)
M. avium complex (MAC); [6]
  MIC: 4 µg/mL (≈ 6.64 µM)
M. avium complex (MAC); [7]
  MIC: 2 µg/mL (≈ 3.32 µM)
M. avium complex (MAC); [8]
  MIC: 8 µg/mL (≈ 13.3 µM)
M. avium complex (MAC); [9]
  MIC: 2 µg/mL (≈ 3.32 µM)
M. avium complex (MAC); MAC isolates
  MIC90: 4 µg/mL (≈ 6.64 µM)
[1]
  MIC: 2 µg/mL (≈ 3.32 µM)
[2]; [4]
  MIC: 2 µg/mL (≈ 3.32 µM)
[2]; MKN ATCC12478
  MIC: 16 µg/mL (≈ 26.6 µM)
[3]; MSMG MC^2155
  MIC: 4 µg/mL (≈ 6.64 µM)

## CO[C@H]1[C@@H](O)[C@H](n2ccc(=O)[nH]c2=O)O[C@@H]1[C@@H](O[C@H]1OC(C(=O)Nc2ccc(OC(F)(F)F)cc2)=C[C@H](O)[C@@H]1O)C(N)=O [RKS2241]
Translocase I
  IC50: 24.3 nM
M. avium complex (MAC); [5]
  MIC: 0.5 to 16 µg/mL (≈ 0.808 to 25.9 µM)
M. avium complex (MAC); MAC strain 100, read-out: MIC
  MIC: 2 µg/mL (≈ 3.23 µM)
M. avium complex (MAC); MAC strain 101, read-out: MIC
  MIC: 1 µg/mL (≈ 1.62 µM)
M. avium complex (MAC); MAC strain 104, read-out: MIC
  MIC: 0.5 µg/mL (≈ 0.808 µM)
M. avium complex (MAC); MAC strain 109, read-out: MIC
  MIC: 0.5 µg/mL (≈ 0.808 µM)
M. avium complex (MAC); MAC strain A5, read-out: MIC
  MIC: 1 µg/mL (≈ 1.62 µM)
M. avium complex (MAC); MAC strain JSH1, read-out: MIC
  MIC: 2 µg/mL (≈ 3.23 µM)
M. avium complex (MAC); [6]
  MIC: 8 µg/mL (≈ 12.9 µM)
M. avium complex (MAC); [7]
  MIC: 1 µg/mL (≈ 1.62 µM)
M. avium complex (MAC); [8]
  MIC: 16 µg/mL (≈ 25.9 µM)
M. avium complex (MAC); [9]
  MIC: 2 µg/mL (≈ 3.23 µM)
M. avium complex (MAC); MAC isolates
  MIC90: 8 µg/mL (≈ 12.9 µM)
[1]
  MIC: 2 µg/mL (≈ 3.23 µM)
[2]; [4]
  MIC: 2 µg/mL (≈ 3.23 µM)
[2]; MKN ATCC12478
  MIC: 32 µg/mL (≈ 51.7 µM)
[3]; MSMG MC^2155
  MIC: 4 µg/mL (≈ 6.47 µM)

## NCC[C@H](O)C(=O)N[C@@H]1C[C@H](N)[C@@H](O[C@H]2O[C@H](CN)[C@@H](O)[C@H](O)[C@H]2O)[C@H](O)[C@H]1O[C@H]1O[C@H](CO)[C@@H](O)[C@H](N)[C@H]1O [AMK, amikacin, reference compound]
M. avium complex (MAC); MAC strain 100, read-out: MIC
  MIC: 8 µg/mL (≈ 13.7 µM)
M. avium complex (MAC); MAC strain 101, read-out: MIC
  MIC: 2 µg/mL (≈ 3.42 µM)
M. avium complex (MAC); MAC strain 104, read-out: MIC
  MIC: 16 µg/mL (≈ 27.3 µM)
M. avium complex (MAC); MAC strain 109, read-out: MIC
  MIC: 1 µg/mL (≈ 1.71 µM)
M. avium complex (MAC); MAC strain A5, read-out: MIC
  MIC: 4 µg/mL (≈ 6.83 µM)
M. avium complex (MAC); MAC strain JSH1, read-out: MIC
  MIC: 8 µg/mL (≈ 13.7 µM)
M. avium complex (MAC); [6]
  MIC: 8 µg/mL (≈ 13.7 µM)
M. avium complex (MAC); [7]
  MIC: 32 µg/mL (≈ 54.6 µM)
M. avium complex (MAC); [8]
  MIC: 8 µg/mL (≈ 13.7 µM)
M. avium complex (MAC); [9]
  MIC: 4 µg/mL (≈ 6.83 µM)
M. avium complex (MAC); MAC isolates
  MIC90: 16 µg/mL (≈ 27.3 µM)
[1]
  MIC: 4 µg/mL (≈ 6.83 µM)
[2]; [4]
  MIC: 2 µg/mL (≈ 3.42 µM)
[2]; MKN ATCC12478
  MIC: 2 µg/mL (≈ 3.42 µM)
MAC; MAC A5
  MIC Combination: 0.5 µg/mL
  MIC: 2 µg/mL
MAC; MAC JSH1
  MIC Combination: 8.0 µg/mL
  MIC: 16 µg/mL
MAC; MAC NIH C1-1
  MIC Combination: 4.0 µg/mL
  MIC: 8 µg/mL
[3]; MSMG MC^2155
  MIC: 0.5 µg/mL (≈ 0.854 µM)

## CO[C@H]1[C@@H](O)[C@H](n2ccc(=O)[nH]c2=O)O[C@@H]1[C@@H](O[C@H]1OC(C(=O)Nc2ccc(F)c(C(F)(F)F)c2)=C[C@H](O)[C@@H]1O)C(N)=O [RKS2137]
Translocase I
  IC50: 12.9 nM
M. avium complex (MAC); [5]
  MIC: 0.5 to 16 µg/mL (≈ 0.806 to 25.8 µM)
M. avium complex (MAC); MAC strain 100, read-out: MIC
  MIC: 2 µg/mL (≈ 3.22 µM)
M. avium complex (MAC); MAC strain 101, read-out: MIC
  MIC: 1 µg/mL (≈ 1.61 µM)
M. avium complex (MAC); MAC strain 104, read-out: MIC
  MIC: 1 µg/mL (≈ 1.61 µM)
M. avium complex (MAC); MAC strain 109, read-out: MIC
  MIC: 0.5 µg/mL (≈ 0.806 µM)
M. avium complex (MAC); MAC strain A5, read-out: MIC
  MIC: 1 µg/mL (≈ 1.61 µM)
M. avium complex (MAC); MAC strain JSH1, read-out: MIC
  MIC: 1 µg/mL (≈ 1.61 µM)
M. avium complex (MAC); [6]
  MIC: 8 µg/mL (≈ 12.9 µM)
M. avium complex (MAC); [7]
  MIC: 2 µg/mL (≈ 3.22 µM)
M. avium complex (MAC); [8]
  MIC: 16 µg/mL (≈ 25.8 µM)
M. avium complex (MAC); [9]
  MIC: 2 µg/mL (≈ 3.22 µM)
M. avium complex (MAC); MAC isolates
  MIC90: 8 µg/mL (≈ 12.9 µM)
[1]
  MIC: 8 µg/mL (≈ 12.9 µM)
[2]; [4]
  MIC: 2 µg/mL (≈ 3.22 µM)
[2]; MKN ATCC12478
  MIC: > 32 µg/mL
[3]; MSMG MC^2155
  MIC: 4 µg/mL (≈ 6.45 µM)

## CO[C@H]1[C@@H](O)[C@H](n2ccc(=O)[nH]c2=O)O[C@@H]1[C@@H](O[C@H]1OC(C(=O)Nc2ccc(Br)c(C)c2)=C[C@H](O)[C@@H]1O)C(N)=O [RKS2244]
Translocase I
  IC50: 12.4 nM
M. avium complex (MAC); [5]
  MIC: 0.5 to 8 µg/mL (≈ 0.797 to 12.8 µM)
M. avium complex (MAC); MAC strain 100, read-out: MIC
  MIC: 0.5 µg/mL (≈ 0.797 µM)
M. avium complex (MAC); MAC strain 101, read-out: MIC
  MIC: 0.25 µg/mL (≈ 0.398 µM)
M. avium complex (MAC); MAC strain 104, read-out: MIC
  MIC: 0.25 µg/mL (≈ 0.398 µM)
M. avium complex (MAC); MAC strain 109, read-out: MIC
  MIC: 0.25 µg/mL (≈ 0.398 µM)
M. avium complex (MAC); MAC strain A5, read-out: MIC
  MIC: 0.25 µg/mL (≈ 0.398 µM)
M. avium complex (MAC); MAC strain JSH1, read-out: MIC
  MIC: 0.5 µg/mL (≈ 0.797 µM)
M. avium complex (MAC); [6]
  MIC: 4 µg/mL (≈ 6.38 µM)
M. avium complex (MAC); [7]
  MIC: 0.5 µg/mL (≈ 0.797 µM)
M. avium complex (MAC); [8]
  MIC: 8 µg/mL (≈ 12.8 µM)
M. avium complex (MAC); [9]
  MIC: 1 µg/mL (≈ 1.59 µM)
M. avium complex (MAC); MAC isolates
  MIC90: 4 µg/mL (≈ 6.38 µM)
M. avium complex (MAC); ten MAC isolates (Table 6)
  MIC range: 0.25 to 8 µg/mL
[1]
  MIC: 4 µg/mL (≈ 6.38 µM)
[2]; [4]
  MIC: 2 µg/mL (≈ 3.19 µM)
[2]; MKN ATCC12478
  MIC: > 32 µg/mL
[3]; MSMG MC^2155
  MIC: 1 µg/mL (≈ 1.59 µM)

## COC(=O)C1=C[C@H](O)[C@H](O)[C@@H](O[C@@H](C(N)=O)[C@H]2O[C@@H](n3ccc(=O)[nH]c3=O)[C@H](O)[C@@H]2OC)O1 [RS 120029]
M. avium complex (MAC); MAC strain 100, read-out: MIC
  MIC: 32 µg/mL (≈ 67.6 µM)
M. avium complex (MAC); MAC strain 101, read-out: MIC
  MIC: > 32 µg/mL
M. avium complex (MAC); MAC strain 104, read-out: MIC
  MIC: 32 µg/mL (≈ 67.6 µM)
M. avium complex (MAC); MAC strain 109, read-out: MIC
  MIC: 32 µg/mL (≈ 67.6 µM)
M. avium complex (MAC); MAC strain A5, read-out: MIC
  MIC: 32 µg/mL (≈ 67.6 µM)
M. avium complex (MAC); MAC strain JSH1, read-out: MIC
  MIC: > 32 µg/mL
M. avium complex (MAC); [6]
  MIC: > 32 µg/mL
M. avium complex (MAC); [7]
  MIC: > 32 µg/mL
M. avium complex (MAC); [8]
  MIC: > 32 µg/mL
M. avium complex (MAC); [9]
  MIC: > 32 µg/mL
M. avium complex (MAC); MAC isolates
  MIC90: 32 µg/mL (≈ 67.6 µM)
[1]
  MIC: > 32 µg/mL
[2]; [4]
  MIC: > 32 µg/mL
[2]; MKN ATCC12478
  MIC: > 32 µg/mL
[3]; MSMG MC^2155
  MIC: > 32 µg/mL
